Experimental data: publication PMC9825645 (Traffic (Copenhagen, Denmark), 2022)

Target: T1, AMPH-1 (Amphiphysin 1) (Caenorhabditis elegans, UniProt Q21004)
T1 sequence (Q21004 1-461): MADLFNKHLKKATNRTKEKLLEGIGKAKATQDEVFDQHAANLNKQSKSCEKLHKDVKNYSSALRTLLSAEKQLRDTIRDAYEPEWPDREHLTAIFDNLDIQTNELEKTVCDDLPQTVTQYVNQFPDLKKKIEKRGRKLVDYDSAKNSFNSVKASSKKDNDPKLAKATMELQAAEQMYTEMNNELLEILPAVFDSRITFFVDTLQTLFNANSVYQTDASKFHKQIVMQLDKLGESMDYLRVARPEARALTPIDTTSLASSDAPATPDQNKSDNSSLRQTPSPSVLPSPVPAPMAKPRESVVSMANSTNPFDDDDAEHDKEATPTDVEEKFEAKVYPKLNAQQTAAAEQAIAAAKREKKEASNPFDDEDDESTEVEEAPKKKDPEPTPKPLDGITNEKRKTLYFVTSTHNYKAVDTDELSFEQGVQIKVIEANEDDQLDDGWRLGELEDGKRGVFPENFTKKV
Assay: membrane fission of PS liposomes by burst analysis spectroscopy
Format: biochemical
Settings: 0.5 mM GDP, 1 μM AMPH-1, 30 min; stimulates fission

**Q.** Nc1nc2c(ncn2[C@@H]2O[C@H](COP(=O)(O)OP(=O)(O)O)[C@@H](O)[C@H]2O)c(=O)[nH]1 [GDP] was tested. Which “membrane fission of PS liposomes by burst analysis spectroscopy” value did it give?
**A.** The value was “GDP stimulates fission to almost the same extent as seen in the presence of GTP”.
